Measurements: patent US7105572B2, “Stable emulsion compositions” (Takeda Pharmaceutical Company Limited, priority 2000, dated 2006)

Columns and labels:
[1] = system: nitric oxide concentration (NOx) in blood; test: Effect on increase of nitric oxide concentration (NOx) in blood of LPS-treated mice; format: in vivo, BALB/c mice; conditions: 30 mg/kg orally, 1 hour before LPS 10 mg/kg i.p.; serum 6 hours after LPS; vs control group
IL-6 = test: Effect on increase of cytokine concentration in blood of LPS-treated mice: IL-6; format: in vivo, BALB/c mice; conditions: 30 mg/kg orally, 1 hour before LPS 10 mg/kg i.p.; serum 6 hours after LPS
Procedure: (§1) As a result of a defense mechanism against an infection and the like or an immune abnormality, various cytokines are produced in vivo. Accordingly, an experimental animal was used to examine the effect of a test compound on the increase cytokine concentration in blood.
(§2) Female BALB/c mice (6 weeks old) were purchased and acclimatized for 1 week and assigned to the groups in each of which 6 to 8 animals were included. In a treatment group, 30 mg/kg of a test compound suspended in a 0.5% aqueous methyl cellulose solution was given orally. In a control group, the vehicle was given similarly. After 1 hour, LPS (10 mg/kg) was given intraperitoneally to each animal in the treatment and control groups, and the blood was taken 1 hour after the LPS administration and examined for concentrations of TNF-α in the serum. IL-1α, IL-1β and IL-6 concentrations were determined using the serum from the blood taken 6 hours after the LPS administration. Each cytokine was determined using an assay kit manufactured by Amersham.

TNF-α = test: Effect on increase of cytokine concentration in blood of LPS-treated mice: TNF-α; format: in vivo, BALB/c mice; conditions: 30 mg/kg orally, 1 hour before LPS 10 mg/kg i.p.; serum 1 hour after LPS
Procedure: as §1, §2

IL-1α = test: Effect on increase of cytokine concentration in blood of LPS-treated mice: IL-1α; format: in vivo, BALB/c mice; conditions: 30 mg/kg orally, 1 hour before LPS 10 mg/kg i.p.; serum 6 hours after LPS
Procedure: as §1, §2

IL-1β = test: Effect on increase of cytokine concentration in blood of LPS-treated mice: IL-1β; format: in vivo, BALB/c mice; conditions: 30 mg/kg orally, 1 hour before LPS 10 mg/kg i.p.; serum 6 hours after LPS
Procedure: as §1, §2

[2] = system: NO production by RAW264.7 cell; test: NO production-inhibiting effect in RAW264.7 cells stimulated with LPS and interferon-gamma; format: cell-based, mouse; conditions: LPS 5 ng/ml + interferon-gamma 1 U/ml, nitrite ion in culture supernatant, compounds 1 and 3: minimum and maximum of 7 and 9 tests
Procedure: Mouse macrophage cell line RAW264.7 was used as an iNOS-inducible cell and a test compound was examined for its % inhibition of NO production. The test compound was dissolved at the concentration of 10 mM in N,N-dimethylformamide and diluted with an RPMI-1640 medium at the concentration of 0.1 mM. The concentration was further adjusted using the medium, so that a final concentration ranging from 10 μM to 10 nM could be obtained by a 10-fold serial dilution, and the test compound was added to a culture medium. […] at 5×10^5/ml with 10% inactivated fetal calf serum in an RPMI-1640 medium and inoculated to a 96-well plate at 1×10^5 cells/0.2 ml per well. After incubating at 37° C. under an atmosphere of 5% CO2/95% air overnight, the test compound adjusted as described above was added and then LPS and interferon-gamma were added at the final concentrations of 5 ng/ml and 1 U/ml, respectively. […] The nitrite ion concentration was determined by adding 25 μl of 20 μg/ml of 2,3-diaminonaphthalene (DAN) to 50 μl of the culture supernatant, followed by incubating at room temperature for 10 minutes, followed by adding 25 μl of 0.5 N NaOH, followed by determining a fluorescence at 450 nm (excitation wavelength: 365 nm). […]

CCOC(=O)C1=CCCCC1S(=O)(=O)Nc1ccc(Cl)cc1F (centres unmarked) [Compound 1, ethyl 6-[N-(4-chloro-2-fluorophenyl)sulfamoyl]-1-cyclohexene-1-carboxylate]
NOx inhibition (%) in blood [1]: 76% | cytokine inhibition (%) in blood IL-6 (IL-6): 89% | cytokine inhibition (%) in blood TNF-α (TNF-α): 98% | cytokine inhibition (%) in blood IL-1α (IL-1α): 97% | cytokine inhibition (%) in blood IL-1β (IL-1β): 73%

CCOC(=O)C1=CCCCC1S(=O)(=O)Nc1cccc(F)c1 (centres unmarked) [Compound 11, ethyl 6-[N-(3-fluorophenyl)sulfamoyl]-1-cyclohexene-1-carboxylate]
IC50 ([2]; Mus musculus): 0.31 µM

CCOC(=O)C1=CCCCC1S(=O)(=O)Nc1ccc(F)cc1F (centres unmarked) [Compound 3, ethyl 6-[N-(2,4-difluorophenyl)sulfamoyl]-1-cyclohexene-1-carboxylate]
NOx inhibition (%) in blood [1]: 90%

CCOC(=O)C1=CCCCC1S(=O)(=O)Nc1ccc(F)cc1F (stereo not drawn) [Compound 20, d-ethyl 6-[N-(2,4-difluorophenyl)sulfamoyl]-1-cyclohexene-1-carboxylate]
IC50 [2]: 0.005 µM
